{
  "source": "patent US9109041B2",
  "about": "“Analog compounds of analgesic peptides derived from the venom of crotalus durissus terrificus snakes, their uses, compositions, methods of preparation and purification” (priority 2004, dated 2015)",
  "tested_on": "prostaglandin E2-induced hyperalgesia",
  "assay": "rat paw pressure test, prostaglandin E2-induced hyperalgesia",
  "conditions": "for pain threshold, FM (g) ± S.E.M: 3 h after PGE2 100 ng/paw i.pl.; for analgesic activity: synthetic peptides compared with natural ENPAK-k, similar conditions",
  "key": {"[1]": {"conditions": "oral route, reversal of PGE2-induced hyperalgesia, CurveExpert 1.3"}},
  "note": "Bridges are numbered along the chain shown (N, C = ends). Where no end group is shown, it is not given here. [ ]: non-standard residue; d: D form. pGlu = O=C1CC[C@@H](C(=O)O)N1",
  "data": [
    {"compound": "CN1CC[C@]23c4c5ccc(O)c4O[C@H]2[C@@H](O)C=C[C@H]3[C@H]1C5", "note": "[Morphine, reference compound]", "values": [
      {"measurement": "pain threshold, FM (g) ± S.E.M", "setting": "morphine 0.004 μg/kg p.o.", "result": "69 ± 1.87", "unit": "g"},
      {"measurement": "pain threshold, IM (g) ± S.E.M.", "setting": "morphine 0.004 μg/kg p.o., before PGE2", "result": "77 ± 1.22", "unit": "g"},
      {"measurement": "pain threshold, FM (g) ± S.E.M", "setting": "morphine 0.2 μg/kg p.o.", "result": "70 ± 1.58", "unit": "g"},
      {"measurement": "pain threshold, IM (g) ± S.E.M.", "setting": "morphine 0.2 μg/kg p.o., before PGE2", "result": "76 ± 1.87", "unit": "g"},
      {"measurement": "pain threshold, FM (g) ± S.E.M", "setting": "morphine 1 μg/kg p.o.", "result": "85 ± 1.58", "unit": "g"},
      {"measurement": "pain threshold, IM (g) ± S.E.M.", "setting": "morphine 1 μg/kg p.o., before PGE2", "result": "78 ± 1.22", "unit": "g"},
      {"measurement": "pain threshold, FM (g) ± S.E.M", "setting": "morphine 5 μg/kg p.o.", "result": "109 ± 1.87", "unit": "g"},
      {"measurement": "pain threshold, IM (g) ± S.E.M.", "setting": "morphine 5 μg/kg p.o., before PGE2", "result": "78 ± 1.22", "unit": "g"},
      {"measurement": "50% effective dose", "setting": "[1]", "result": 0.05515, "unit": "µg/kg"},
      {"measurement": "90% effective dose", "setting": "[1]", "result": 0.3267, "unit": "µg/kg"}
    ]},
    {"compound": "SEQ ID NO: 3: one of 4 possible sequences pGlu-Phe-Ser-Pro-Glu-Asn-Cys-Lys/Gln-Gly-Glu-Ser-Lys/Gln-Pro-Cys; modified synthetic peptide (XFSPENCQGESKPC; Synthetically generated peptide)", "values": [
      {"measurement": "pain threshold, FM (grams) ± S.E.M.", "setting": "p.o., 2 ml of solution (peptide diluted in 11 ml of saline), 3 hours after PGE2 100 ng/paw i.pl.", "result": "110 ± 2.74", "unit": "grams"},
      {"measurement": "pain threshold, IM (grams) ± S.E.M.", "setting": "p.o., 2 ml of solution (peptide diluted in 11 ml of saline), before PGE2", "result": "76 ± 1.00", "unit": "grams"},
      {"measurement": "analgesic activity", "result": "demonstrated analgesic activity"}
    ]},
    {"compound": "SEQ ID NO: 6: one of 4 possible sequences pGlu-Phe-Ser-Pro-Glu-Asn-Cys-Lys/Gln-Gly-Glu-Ser-Lys/Gln-Pro-Cys; synthetic peptide (XFSPENCKGESQPC; Synthetically generated peptide)", "values": [
      {"measurement": "analgesic activity", "result": "inactivity"}
    ]},
    {"compound": "SEQ ID NO: 7: one of 4 possible sequences pGlu-Phe-Ser-Pro-Glu-Asn-Cys-Lys/Gln-Gly-Glu-Ser-Lys/Gln-Pro-Cys; synthetic peptide ([pGlu]FSPENCKGESKPC; disulfide 7-14)", "values": [
      {"measurement": "analgesic activity", "result": "inactivity"}
    ]}
  ]
}
